According to patent US20260226047A1, “BENZIMIDAZOLE AND AZA-BENZIMIDAZOLE BASED IL-17A MODULATORS AND USES THEREOF” (DICE ALPHA, INC., priority 2023, published 2026):

Molecular target: T1, IL-17A/A (Homo sapiens, UniProt Q16552)
T1 construct: purchased Genscript Z03228
T1 sequence (Q16552 24-155): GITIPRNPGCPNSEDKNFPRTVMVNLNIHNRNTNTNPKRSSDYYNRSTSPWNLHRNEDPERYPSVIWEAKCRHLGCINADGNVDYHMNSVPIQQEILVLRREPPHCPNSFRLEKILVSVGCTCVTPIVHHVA
Assay: IL-17A/A HEK-Blue Cell Assay
Type: cell-based
Settings: IL-17A/A inhibition, HEK-Blue IL-17A reporter cell line, SEAP readout at A630, incubated for 20 hours
Experimental: Example 3: IL-17A/A HEK-Blue Cell Assay
The HEK-Blue IL-17A reporter cell line (Fisher #NC1408637) was used for cell-based IL-17A/A inhibition assays. Cells were grown and prepared for assays according to the manufacturer's instructions. This cell line consists of HEK 293 cells that were designed to expressed IL-17RA, IL-17RC, and the ActI adapter molecule, the combination of which, when stimulated by IL-17A/A activates a NFκB promoter and drives expression of a recombinant Secreted Alkaline Phosphatase (SEAP) gene protein. Media from the cells is then added to a development reagent (Quanti-Blue Substrate, Fisher #NC9711613), and read at A630.
Compounds were titrated in DMSO, with a top final compound concentration of 10 μM, 1 uM, or 0.3 μM, and added to the cells immediately before adding IL-17A/A (Genscript #Z03228). The cells, compound, and IL-17A/A were then incubated for 20 hours before media was removed for SEAP analysis. The resulting inhibition curve was then analyzed using Graphpad Prism 7.0, and IC50 values were determined using a 4-parameter nonlinear fit. DMSO was added to a universal final concentration of 0.1% to optimize background.

Compound | IC50
CCn1nccc1C(=O)N[C@H](c1nc2cc(C[C@H]3CCNC3=O)ccc2[nH]1)C1CCC(F)(F)CC1 [Compound 7] | 100 to 1000 nM
CCn1nccc1C(=O)N[C@H](c1nc2c(F)c(CC3CCC(C(F)(F)F)NC3=O)ccc2[nH]1)C(C1CC1)C1CC1 (single isomer, unassigned) [Compound 51] | 100 to 1000 nM
CCn1nccc1C(=O)N[C@H](c1nc2ccc(C[C@@H]3CC(F)(F)CNC3=O)cc2[nH]1)C(C1CC1)C1CC1 [Compound 75] | 100 to 1000 nM
CCn1nccc1C(=O)N[C@H](c1nc2cc(CC3CCNC3=O)ccc2[nH]1)C(C1CC1)C1CC1 (some centres unmarked) [Compound 15] | 100 to 1000 nM
CCn1nccc1C(=O)N[C@H](c1nc2c(F)c(CC3CCC(C(F)(F)F)NC3=O)ccc2[nH]1)C(C1CC1)C1CC1 (single isomer, unassigned) [Compound 47] | 100 to 1000 nM
CCn1nccc1C(=O)N[C@H](c1nc2ccc(CC3CC(C)NC3=O)cc2[nH]1)C(C1CC1)C1CC1 (some centres unmarked) [Compound 72] | 100 to 1000 nM
CC[C@@H](c1ccc(F)cc1)[C@H](NC(=O)c1ccnn1CC)c1nc2ccc(C[C@H]3CCNC3=O)cc2[nH]1 [Compound 63] | > 1000 nM
CCn1nccc1C(=O)N[C@H](c1nc2ccc(C[C@H]3CCCNC3=O)cc2[nH]1)[C@H]1CC[C@H](C)CC1 [Compound 87] | > 1000 nM
CCn1nccc1C(=O)N[C@H](c1nc2cc(CC3CCC(C(F)(F)F)NC3=O)cc(F)c2[nH]1)C(C1CC1)C1CC1 (some centres unmarked) [Compound 52] | 100 to 1000 nM
CCn1nccc1C(=O)N[C@H](c1nc2ccc(C(C)C3CCCNC3=O)cc2[nH]1)C(C1CC1)C1CC1 (some centres unmarked) [Compound 85] | > 1000 nM
CCn1nccc1C(=O)N[C@H](c1nc2c(F)c(CC3CCNC3=O)ccc2[nH]1)C(C1CC1)C1CC1 (mixture of isomers) [Compound 2, N-((1S)-2,2-dicyclopropyl-1-(7-fluoro-6-((2-oxopyrrolidin-3-yl)methyl)-1H-benzo[d]imidazol-2-yl)ethyl)-1-ethyl-1H-pyrazole-5-carboxamide] | 100 to 1000 nM
CCn1nccc1C(=O)N[C@H](c1nc2cc(C[C@@H]3C[C@H](C(F)(F)F)NC3=O)ccc2[nH]1)C(C1CC1)C1CC1 (single isomer, unassigned) [Compound 5] | > 1000 nM
CCn1nccc1C(=O)N[C@H](c1nc2cc(CC3CCC(C(F)(F)F)NC3=O)cc(F)c2[nH]1)C(C1CC1)C1CC1 (some centres unmarked) [Compound 54] | > 1000 nM
CCn1nccc1C(=O)N[C@H](c1nc2nc(C[C@H]3CCNC3=O)ccc2[nH]1)C1CCC(F)(F)CC1 [Compound 10] | > 1000 nM
CCn1nccc1C(=O)N[C@H](c1nc2ccc(C(COC)C3C[C@@H](C(F)(F)F)NC3=O)cc2[nH]1)C(C1CC1)C1CC1 (some centres unmarked) [Compound 80] | 100 to 1000 nM
CCn1nccc1C(=O)N[C@H](c1nc2c(F)c(CC3CCC(C(F)(F)F)NC3=O)ccc2[nH]1)C(C1CC1)C1CC1 (single isomer, unassigned) [Compound 49] | > 1000 nM
CCn1nccc1C(=O)N[C@H](c1nc2c(F)c(C[C@H]3C[C@H](C(F)(F)F)NC3=O)ccc2[nH]1)C(C1CC1)C1CC1 [Compound 38] | 100 to 1000 nM
CCn1nccc1C(=O)N[C@H](c1nc2cc(CC3CCC(C(F)(F)F)NC3=O)cc(F)c2[nH]1)C(C1CC1)C1CC1 (some centres unmarked) [Compound 55] | > 1000 nM
CCn1nccc1C(=O)N[C@H](c1nc2ccc(CC3C(=O)NC4CC43)cc2[nH]1)C(C1CC1)C1CC1 (some centres unmarked) [Compound 76] | 100 to 1000 nM
CCn1nccc1C(=O)N[C@H](c1nc2ccc(CC3CCCNC3=O)cc2[nH]1)[C@H]1CC[C@H](C(F)(F)F)CC1 (some centres unmarked) [Compound 88] | > 1000 nM

Further lines, results first:

IC50 | Compound
100 to 1000 nM | CCn1nccc1C(=O)N[C@H](c1nc2cc(CC3CCC(C(F)(F)F)NC3=O)ccc2[nH]1)C(C1CC1)C1CC1 (some centres unmarked) [Compound 43]
100 to 1000 nM | O=C1N[C@H](C(F)(F)F)C[C@@H]1Cc1ccc2nc([C@@H](NC(=O)C3(F)CC3)C(C3CC3)C3CC3)[nH]c2c1 [Compound 69]
> 1000 nM | CCn1nccc1C(=O)N[C@H](c1nc2cc(C[C@@H]3CCNC3=O)ccc2[nH]1)C1CCC(F)(F)CC1 [Compound 8]
100 to 1000 nM | CCn1nccc1C(=O)N[C@H](c1nc2ccc(C(C)C3CCCNC3=O)cc2[nH]1)C(C1CC1)C1CC1 (some centres unmarked) [Compound 84]
> 1000 nM | CCn1nccc1C(=O)N[C@H](c1nc2cc(CC3CCC(C(F)(F)F)NC3=O)ccc2[nH]1)C(C1CC1)C1CC1 (some centres unmarked) [Compound 44]
100 to 1000 nM | CCn1nccc1C(=O)N[C@H](c1nc2ccc(C(C)C3CCCNC3=O)cc2[nH]1)C(C1CC1)C1CC1 (some centres unmarked) [Compound 82]
100 to 1000 nM | CCn1nccc1C(=O)N[C@H](c1nc2cc(C[C@@H]3C[C@@H](C(F)(F)F)NC3=O)ccc2[nH]1)C(C1CC1)C1CC1 (single isomer, unassigned) [Compound 4]
100 to 1000 nM | CCn1nccc1C(=O)N[C@H](c1nc2ccc(C(COC)C3C[C@@H](C(F)(F)F)NC3=O)cc2[nH]1)C(C1CC1)C1CC1 (some centres unmarked) [Compound 79]
> 1000 nM | CCn1nccc1C(=O)N[C@H](c1nc2ccc(C(C)C3CCCNC3=O)cc2[nH]1)C(C1CC1)C1CC1 (some centres unmarked) [Compound 81]
